The record followed here is patent US10030016B2 (Sunesis Pharmaceuticals, Inc., priority 2009, dated 2018).

One assay deals with PDK1 (Homo sapiens (Human), UniProt O15530). Description: PDK1 kinase assay (coupled PDK1/AKT/FAM-crosstide assay, IMAP fluorescence polarization). In kind it is biochemical. In short, it runs like this:
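GST-tagged PDK1 (aa 51-359, 0.75 nM) was coupled to unphosphorylated GST-AKT2 140-467-PIFtide (10 nM) and 100 nM FAM-crosstide at 40 μM ATP, in Tris pH 7.2 buffer, for 30 min at 25 °C. Crosstide phosphorylation was read by IMAP fluorescence polarization (ΔmP) and fitted with a 4-parameter curve.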
A general note: Fluorescence polarisation rises when a labelled molecule tumbles more slowly, as on binding a larger partner.

The test system of assay [1] is phospho-akt (Thr308) in PC-3 cells. As to the kind of experiment: Inhibition of phospho-akt (Thr308) in PC-3 cells, MSD phospho-akt 308 ELISA kit. In kind it is cell-based. Conditions: Homo sapiens, 2 hours, no serum, read-out: EC50. In a few lines: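 Serum-free 2 h compound exposure of overnight-seeded PC-3 cells, threefold dilution series; lysates analysed on blocked MSD plates (3% BSA) for Thr308-phosphorylated Akt, normalised between DMSO and 5 μM wortmannin wells.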
(ELISA stands for enzyme-linked immunosorbent assay.)

[2] abbreviates: inhibition of phospo-PDK1 in vitro.
Where [3] appears, read: PC-3, 2 h, inhibition of P308 Akt in PC-3 cells, MSD.
[4] abbreviates: inhibition of P308 Akt in PC-3 cells using MSD.
The mark [5] stands for this setting: inhibition of P308 Akt in PC-3 cells, MSD.

Structures can show the parent of a compound that is named as a salt. Where two headings read alike, the source gives them in different places. Bounds are passed on as bounds.

By IC50 is commonly meant the midpoint of a concentration-inhibition curve. Low values mean higher potency, high ones lower potency. Broadly, the EC50 is the midpoint of the concentration-response curve.

Chain of PDK1 (O15530 51-359): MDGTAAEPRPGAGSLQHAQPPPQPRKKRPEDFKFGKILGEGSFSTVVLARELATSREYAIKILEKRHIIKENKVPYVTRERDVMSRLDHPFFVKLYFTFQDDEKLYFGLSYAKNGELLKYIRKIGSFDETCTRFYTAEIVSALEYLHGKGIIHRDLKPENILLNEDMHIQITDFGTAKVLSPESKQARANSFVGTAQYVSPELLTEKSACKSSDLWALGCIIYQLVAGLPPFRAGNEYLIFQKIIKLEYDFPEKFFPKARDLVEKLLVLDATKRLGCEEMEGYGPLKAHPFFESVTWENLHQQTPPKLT

`Nc1ncnc2ccc(-c3ccc(CNc4ncccc4C(=O)NCc4ccc(Cl)cc4)s3)cc12` [Example 3.22, 2-({[5-(4-aminoquinazolin-6-yl)thiophen-2-yl]methyl}amino)-N-(4-chlorobenzyl)pyridine-3-carboxamide (TFA salt)] registered an IC50 on PDK1 (setting [2]) of 0.1 to 1 µM. Moreover, in assay [1] (setting [3]), the EC50 is over 10 µM.

`Nc1ncnc2c1c(-c1ccc(CNc3ncc(C(F)(F)F)cc3C(=O)Nc3ccc(F)cc3)cc1)cn2CCCO` [Example 322, 2-(4-(4-amino-7-(3-hydroxypropyl)-7H-pyrrolo [2,3-d]pyrimidin-5-yl)benzylamino)-N-(4-fluorophenyl)-5-(trifluoromethyl)nicotinamide] gave an IC50 against PDK1 (inhibition of PDK1 in vitro) of under 0.1 µM. For the same compound, the EC50 in assay [1] (setting [4]) was under 1 µM.

The compound `Nc1ncnc2ccc(-c3ccc(CNc4ncc(F)cc4C(=O)NCc4ccc(F)c(F)c4)s3)cc12` [Ex. 7.3.1] showed an IC50 at PDK1 (setting [2]) of under 0.1 µM. In addition, the EC50 in assay [1] (setting [5]) was under 1 µM.

Turning to `Nc1ncnc2ccc(-c3ccc(CNc4ncccc4C(=O)Nc4cccc(F)c4)s3)cc12` [Example 3.46, 2-({[5-(4-aminoquinazolin-6-yl)thiophen-2-yl]methyl}amino)-N-(3-fluorophenyl)pyridine-3-carboxamide (TFA salt)], at PDK1 (setting [2]), the IC50 was 0.1 to 1 µM. Moreover, in assay [1] (setting [5]), the EC50 lay within 1 to 10 µM.

In the case of `COC(=O)c1cc(-c2ccc(CNc3ncc(C#N)cc3C(=O)N[C@@H](C)c3ccc(F)cc3)cc2)cnc1N` [Example 103, (S)-methyl 2-amino-5-(4-((5-cyano-3-(1-(4-fluorophenyl)ethylcarbamoyl)pyridin-2-ylamino)methyl)phenyl)nicotinate], the IC50 against PDK1 (inhibition of PDK1 in vitro) is under 0.1 µM. In addition, in assay [1] (setting [4]), the EC50 is 1 to 10 µM.

`C[C@@H](c1ccc(F)cc1)n1cnc2ccnc(NCc3ccc(-c4ccc5ncnc(N)c5c4)s3)c2c1=O` [Ex. 7.9] returned an IC50 at PDK1 (setting [2]) of under 0.1 µM. Further, the EC50 in assay [1] (setting [5]) was under 1 µM.

In the case of `Nc1n[nH]c2ncc(-c3ccc(CNc4ncc(C(F)(F)F)cc4C(=O)NC4CCC(F)(F)CC4)cc3)cc12` [Example 284, 2-(4-(3-amino-1H-pyrazolo [3,4-b]pyridin-5-yl)benzylamino)-N-(4,4-difluorocyclohexyl)-5-(trifluoromethyl)nicotinamide], the IC50 against PDK1 (inhibition of PDK1 in vitro) is over 5 µM. Besides, the EC50 in assay [1] (setting [4]) is 1 to 10 µM.

Turning to `C[C@H](NC(=O)c1nc(C#N)cnc1NCc1ccc(-c2cnc(N)c(CC[C@@H]3CCCN3)n2)cc1)c1ccc(F)c(F)c1` [Example 78, 3-{4-[5-Amino-6-((S)-2-pyrrolidin-2-yl-ethyl)-pyrazin-2-yl]-benzylamino}-6-cyano-pyrazine-2-carboxylic acid [(S)-1-(3,4-difluoro-phenyl)-ethyl]-amide], the IC50 against PDK1 (inhibition of PDK1 in vitro) was under 0.1 µM. In addition, in assay [1] (setting [4]), the EC50 lay in the range of 1 to 10 µM.

`N#Cc1cnc(NCc2ccc(-c3cnc4[nH]nc(N)c4c3)cc2)c(C(=O)NCc2cncc(F)c2)c1` [Example 311, 2-(4-(3-amino-1H-pyrazolo [3,4-b]pyridin-5-yl)benzylamino)-5-cyano-N-((5-fluoropyridin-3-yl)-5-methyl)nicotinamide]: at PDK1 (inhibition of PDK1 in vitro), the IC50 was under 0.1 µM. Besides, the EC50 in assay [1] (setting [4]) was under 1 µM.

Take `C[C@H](NC(=O)c1cc(C#N)cnc1NCc1ccc(-c2ccc3ncc4ncn(C)c4c3c2)s1)c1ccc(F)cc1` [Example 2.28, (S)-5-cyano-N-(1-(4-fluorophenyl)ethyl)-2-(((5-(1-methyl-1H-imidazo[4,5-c]quinolin-8-yl)thiophen-2-yl)methyl)amino) nicotinamide]: at PDK1 (setting [2]), the IC50 is under 0.1 µM. For the same compound, in assay [1] (setting [5]), the EC50 was under 1 µM.

For `COc1cc(F)ccc1NC(=O)c1cc(C(F)(F)F)cnc1NCc1ccc(-c2cnc3[nH]nc(N)c3c2)cc1` [Example 261, 2-(4-(3-amino-1H-pyrazolo [3,4-b]pyridin-5-yl)benzylamino)-N-(4-fluoro-2-methoxyphenyl)-5-(trifluoromethyl)nicotinamide], the IC50 against PDK1 (inhibition of PDK1 in vitro) was under 0.1 µM. Besides, in assay [1] (setting [4]), the EC50 fell in the range of 1 to 10 µM.

The compound `Cn1cnc2cnc(-c3ccc(CNc4nc5c(cc4C(=O)NCc4ccc(F)c(F)c4)CCC5)s3)cc21` [Example 8.15.2, N-(3,4-difluorobenzyl)-2-({[5-(1-methyl-1H-imidazo[4,5-c]pyridin-6-yl)thiophen-2-yl]methyl}amino)-6,7-dihydro-5H-cyclopenta[b] pyridine-3-carboxamide] returned a concentration for half-maximal inhibition (IC50) on PDK1 (setting [2]) of over 5 µM. In addition, the EC50 in assay [1] (setting [5]) is over 10 µM.

Regarding `N#Cc1cnc(NCc2ccc(-c3ccc4ncnc(N)c4c3)s2)c(C(=O)NCc2ccc(F)c(F)c2)n1` [Example 3.80, 3-(((5-(4-aminoquinazolin-6-yl)thiophen-2-yl)methyl)amino)-6-cyano-N-(3,4-difluorobenzyl)pyrazine-2-carboxamide (TFA salt)], the IC50 against PDK1 (setting [2]) lay within 0.1 to 1 µM. In assay [1] (setting [5]), the EC50 was under 1 µM.

On PDK1 (inhibition of PDK1 in vitro), `O=C(NCc1ccc(F)c(F)c1)c1cc(C(F)(F)F)cnc1NCc1ccc(-c2cnc(NCCO)cn2)cc1` [Example 229, N-(3,4-difluorobenzyl)-2-(4-(5-(2-hydroxyethylamino)pyrazin-2-yl)benzylamino)-5-(trifluoromethyl)nicotinamide] yielded an IC50 of 0.1 to 1 µM. Also, the EC50 in assay [1] (setting [4]) lay within 1 to 10 µM.

Compound `C[C@H](NC(=O)c1cc(C#N)cnc1NCc1ccc(-c2cnc3[nH]nc(C#CCN(C)C)c3c2)cc1)c1ccc(F)cc1` [Example 146, (S)-5-cyano-2-(4-(3-(3-(dimethylamino)prop-1-ynyl)-1H-pyrazolo[3,4-b]pyridin-5-yl)benzyl-amino)-N-(1-(4-fluorophenyl)ethyl) nicotinamide] returned an IC50 on PDK1 (inhibition of PDK1 in vitro) of under 0.1 µM. For the same compound, the EC50 in assay [1] (setting [4]) is under 1 µM.

Compound `O=C(NCc1ccc(F)cc1)c1cccnc1NCc1cccc(-c2c[nH]c3ncccc23)c1` [Example 1.6, 2-(3-(1H-pyrrolo[2,3-b]pyridin-3-yl)benzylamino)-N-(4-fluorobenzyl)nicotinamide] came in with an IC50 against PDK1 (setting [2]) of under 0.1 µM. The EC50 in assay [1] (setting [5]) is 1 to 10 µM.

The compound `Nc1ncnc2ccc(-c3ccc(CNc4ncccc4C(=O)NC4CCCCCC4)s3)cc12` [Example 3.30, 2-({[5-(4-aminoquinazolin-6-yl)thiophen-2-yl]methyl}amino)-N-cycloheptylpyridine-3-carboxamide (TFA salt)] displayed an IC50 against PDK1 (setting [2]) of over 5 µM. For the same compound, the EC50 in assay [1] (setting [5]) was over 10 µM.

The compound `C[C@H](NC(=O)c1cccnc1NCc1ccc(-c2ccn3ncnc3c2)s1)c1ccc(F)cc1` [Example 2.5, N-[(1S)-1-(4-fluorophenyl)ethyl]-2-({[5-([1,2,4]triazolo[1,5-a]pyridin-7-yl)thiophen-2-yl)methyl}amino)pyridine-3-carboxamide] displayed an IC50 against PDK1 (setting [2]) of 1 to 5 µM. In assay [1] (setting [3]), the EC50 is over 10 µM.

Regarding `C[C@H](NC(=O)c1cc(C#N)cnc1NCc1ccc(-c2cnc(N)c(-c3cccc(N)c3)n2)cc1)c1ccc(F)cc1` [Example 237, 2-{4-[5-Amino-6-(3-amino-phenyl)-pyrazin-2-yl]-benzylamino}-5-cyano-N-[(S)-1-(4-fluoro-phenyl)-ethyl]-nicotinamide], the IC50 at PDK1 (inhibition of PDK1 in vitro) was under 0.1 µM. Also, the EC50 in assay [1] (setting [4]) is under 1 µM.

Regarding `CCC(C)NS(=O)(=O)c1cnc(NCc2ccc(-c3ccc4ncnc(N)c4c3)s2)c(C(=O)NC)c1` (centres unmarked) [Example 8.6.17, 2-(((5-(4-aminoquinazolin-6-yl)thiophen-2-yl)methyl)amino)-5-(N-sec-butylsulfamoyl)-N-methylnicotinamide], the IC50 on PDK1 (setting [2]) was over 5 µM. Besides, the EC50 in assay [1] (setting [5]) was 1 to 10 µM.

Regarding `C[C@@H](Nc1ncc(C(F)(F)F)cc1C(=O)Nc1ccc(F)cc1)c1ccc(-c2cnc3[nH]nc(N)c3n2)cc1` [Example 412, 2-{(R)-1-[4-(3-Amino-1H-pyrazolo[3,4-b]pyrazin-5-yl)-phenyl]-ethylamino}-N-(4-fluoro-phenyl)-5-trifluoromethyl-nicotinamide], on PDK1 (inhibition of PDK1 in vitro), the concentration for half-maximal inhibition (IC50) is under 0.1 µM. Further, the 50% effective concentration (EC50) in assay [1] (setting [4]) lay in the range of 1 to 10 µM.

`C[C@H](NC(=O)c1cc(C(F)(F)F)cnc1NCc1ccc(-c2ccc3ncnc(N)c3c2)s1)c1ccc(F)c(F)c1` [Example 8.12.6, 2-({[5-(4-aminoquinazolin-6-yl)thiophen-2-yl]methyl}amino)-N-[(1S)-1-(3,4-difluorophenyl)ethyl]-5-(trifluoromethyl)pyridine-3-carboxamide]: the IC50 against PDK1 (setting [2]) was under 0.1 µM. Further, the EC50 in assay [1] (setting [5]) is under 1 µM.

For the compound `CCOc1ccnc(NCc2ccc(-c3ccc4ncnc(N)c4c3)s2)c1C(=O)N[C@@H](C)c1ccc(F)cc1` [Ex. 7.7, (S)-2-(((5-(4-aminoquinazolin-6-yl)thiophen-2-yl)methyl)amino)-N-(1-(4-fluoro-phenyl)ethyl)-4-ethoxynicotinamide], at PDK1 (setting [2]), the IC50 was 0.1 to 1 µM. The EC50 in assay [1] (setting [5]) is over 10 µM.

`Nc1ncnc2ccc(-c3ccc(CNc4ncc(S(=O)(=O)N5CCOCC5)cc4C(=O)NCc4ccc(F)c(F)c4)s3)cc12` [Example 8.7.12, 2-(((5-(4-aminoquinazolin-6-yl)thiophen-2-yl)methyl)amino)-N-(3,4-difluorobenzyl)-5-(morpholinosulfonyl) nicotinamide]: the 50% inhibitory concentration (IC50) against PDK1 (setting [2]) was 0.1 to 1 µM. Also, the EC50 in assay [1] (setting [5]) is under 1 µM.

For the compound `Nc1ncnc2ccc(-c3ccc(CNc4ncccc4C(=O)NCc4cncnc4)s3)cc12` [Example 3.57, 2-({[5-(4-aminoquinazolin-6-yl)thiophen-2-yl]methyl}amino)-N-(pyrimidin-5-ylmethyl) pyridine-3-carboxamide (TFA salt)], the IC50 against PDK1 (setting [2]) was 1 to 5 µM. Further, the EC50 in assay [1] (setting [5]) lay in the range of 1 to 10 µM.
